Laboratory results as given in patent US11485731B2, “Compounds and methods useful in the treatment of a PRMT5-mediated disorder” (ARGONAUT THERAPEUTICS LIMITED, priority 2017, dated 2022).

Target: human PRMT5/MEP50 (Homo sapiens (Human), UniProt O14744)
Test: PRMT5 chemiluminescent assay
Assay type: biochemical
Conditions: human PRMT5/MEP50 expressed in HEK293 cells; biotinylated histone peptides; Histone H4 monomethyl R3 antibody; chemiluminescent readout
Procedure, shortened: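 HEK293-expressed PRMT5/MEP50, diluted to 5 ng/µL in assay buffer, reacted 60 min with rotation on plate-bound biotinylated histone peptides. Product was detected with anti-histone H4 R3 monomethyl antibody (60 min), then HRP secondary (30 min) and chemiluminescent substrate. IC50 values came from the chemiluminescence signal.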

Sequence of human PRMT5/MEP50 (O14744 whole entry): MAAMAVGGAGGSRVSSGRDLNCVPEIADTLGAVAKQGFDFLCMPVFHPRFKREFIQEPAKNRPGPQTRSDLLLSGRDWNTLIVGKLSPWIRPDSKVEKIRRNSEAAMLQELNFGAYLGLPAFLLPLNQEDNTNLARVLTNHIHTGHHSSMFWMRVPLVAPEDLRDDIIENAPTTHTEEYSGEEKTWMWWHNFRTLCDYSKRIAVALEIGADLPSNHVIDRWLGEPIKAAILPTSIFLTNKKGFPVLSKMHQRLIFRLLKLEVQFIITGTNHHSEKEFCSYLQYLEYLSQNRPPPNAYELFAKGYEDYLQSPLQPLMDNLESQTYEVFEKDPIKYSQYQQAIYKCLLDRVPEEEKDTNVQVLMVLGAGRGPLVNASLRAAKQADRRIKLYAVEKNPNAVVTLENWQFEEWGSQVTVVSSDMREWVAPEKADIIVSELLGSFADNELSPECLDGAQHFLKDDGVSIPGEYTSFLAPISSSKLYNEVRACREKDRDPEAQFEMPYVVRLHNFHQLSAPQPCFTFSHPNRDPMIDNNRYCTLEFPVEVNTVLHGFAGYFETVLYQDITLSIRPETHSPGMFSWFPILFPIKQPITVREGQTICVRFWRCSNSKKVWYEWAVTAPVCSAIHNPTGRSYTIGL
Sequence of human PRMT5/MEP50 (Q9BQA1 whole entry partner): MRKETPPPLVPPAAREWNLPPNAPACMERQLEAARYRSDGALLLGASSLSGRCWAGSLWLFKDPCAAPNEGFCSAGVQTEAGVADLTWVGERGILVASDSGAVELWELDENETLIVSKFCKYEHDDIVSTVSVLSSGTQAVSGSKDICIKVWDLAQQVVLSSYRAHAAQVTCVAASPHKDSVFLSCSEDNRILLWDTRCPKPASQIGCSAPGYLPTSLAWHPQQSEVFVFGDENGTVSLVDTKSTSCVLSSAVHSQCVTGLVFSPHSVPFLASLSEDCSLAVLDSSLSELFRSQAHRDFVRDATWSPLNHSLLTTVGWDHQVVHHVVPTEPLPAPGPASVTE

| IC50 | Structure (SMILES) |
| --- | --- |
| 1860 nM | O=C(OCC(O)CN1CCc2ccccc2C1)N1CC(C(=O)N2CCOCC2)C1 (centres unmarked) [Example 4T, 3-(3,4-dihydroisoquinolin-2(1H)-yl)-2-hydroxypropyl 3-(morpholine-4-carbonyl)azetidine-1-carboxylate] |
| 8500 nM | O=C(NCC(O)CN1CCc2ccccc2C1)N1CCc2ccccc21 (centres unmarked) [Example 2B, N-[2-hydroxy-3-(1,2,3,4-tetrahydroisoquinolin-2-yl)propyl]-2,3-dihydro-1H-indole-1-carboxamide] |
| 12 nM | O=C(NC[C@H](O)CN1CCc2ccccc2C1)N1CCCC(c2ccc(F)cc2)C1 (stereo partly drawn) [Example 1BU, N-((S)-3-(3,4-dihydroisoquinolin-2(1H)-yl)-2-hydroxypropyl)-3-(4-fluorophenyl)piperidine-1-carboxamide] |
| 8830 nM | O=C(OCC(O)CN1CCc2ccccc2C1)N1CCCC(O)C1 (centres unmarked) [Example 4I, 3-(3,4-dihydroisoquinolin-2(1H)-yl)-2-hydroxypropyl 3-hydroxypiperidine-1-carboxylate] |
| 399 nM | O=C(NC[C@H](O)CN1CCc2ccccc2C1)N1CCC(O)(c2ccccc2)C1 (stereo partly drawn) [Example 1BI, N-((S)-3-(3,4-dihydroisoquinolin-2(1H)-yl)-2-hydroxypropyl)-3-hydroxy-3-phenylpyrrolidine-1-carboxamide] |
| 3940 nM | CC1(O)CCN(C(=O)NC[C@H](O)CN2CCc3ccccc3C2)CC1 [Example 1BG, (S)-N-(3-(3,4-dihydroisoquinolin-2(1H)-yl)-2-hydroxypropyl)-4-hydroxy-4-methylpiperidine-1-carboxamide] |
| 639 nM | O=C(NCC(O)CN1CCc2ccsc2C1)N1CCCc2ccccc21 (centres unmarked) [Example 1Z, N-(3-(4,7-dihydrothieno[2,3-c]pyridin-6(5H)-yl)-2-hydroxypropyl)-3,4-dihydroquinoline-1(2H)-carboxamide] |
| 8540 nM | CN(C)C(=O)C1CN(C(=O)NCC(O)CN2CCc3ccccc3C2)C1 (centres unmarked) [Example 1V, N^1-(3-(3,4-dihydroisoquinolin-2(1H)-yl)-2-hydroxypropyl)-N^3,N^3-dimethylazetidine-1,3-dicarboxamide] |
| 21 nM | O=C(OCC(O)CN1CCc2ccsc2C1)N1CCC(c2ccccc2)C1 (centres unmarked) [Example 4AF, 3-(4,7-dihydrothieno[2,3-c]pyridin-6(5H)-yl)-2-hydroxypropyl 3-phenylpyrrolidine-1-carboxylate] |
| 25 nM | O=C(OCC(O)CN1CCc2ccccc2C1)N1CCCC(Nc2ccncc2)C1 (centres unmarked) [Example 4C, 3-(3,4-dihydroisoquinolin-2(1H)-yl)-2-hydroxypropyl 3-(pyridin-4-ylamino)piperidine-1-carboxylate] |
| 436 nM | CN1CCCN(C(=O)NCC(O)CN2CCc3ccccc3C2)CC1 (centres unmarked) [Example 1CL, N-(3-(3,4-dihydroisoquinolin-2(1H)-yl)-2-hydroxypropyl)-4-methyl-1,4-diazepane-1-carboxamide] |
| 5030 nM | CN(C)C(=O)C1CN(C(=O)OCC(O)CN2CCc3ccccc3C2)C1 (centres unmarked) [Example 4S, 3-(3,4-dihydroisoquinolin-2(1H)-yl)-2-hydroxypropyl 3-(dimethylcarbamoyl)azetidine-1-carboxylate] |
| 3140 nM | O=C(NC[C@H](O)CN1CCc2ccccc2C1)N1CCCS(=O)(=O)CC1 [Example 1AV, (S)-N-(3-(3,4-dihydroisoquinolin-2(1H)-yl)-2-hydroxypropyl)-1,4-thiazepane-4-carboxamide 1,1-dioxide] |
| 46 nM | O=C(OCC(O)CN1CCc2sccc2C1)N1CCc2ccccc2C1 (centres unmarked) [Example 4AA, 3-(6,7-dihydrothieno[3,2-c]pyridin-5(4H)-yl)-2-hydroxypropyl 3,4-dihydroisoquinoline-2(1H)-carboxylate] |
| 613 nM | O=C(OCC(O)CN1CCc2ccccc2C1)N1CCCCC1 (centres unmarked) [Example 3B, 2-hydroxy-3-(1,2,3,4-tetrahydroisoquinolin-2-yl)propyl piperidine-1-carboxylate] |
| 51 nM | O=C(NCC(O)CN1CCc2ccccc2C1)N1CCC(C(=O)N2CCOCC2)CC1 (centres unmarked) [Example 1O, N-(3-(3,4-dihydroisoquinolin-2(1H)-yl)-2-hydroxypropyl)-4-(morpholine-4-carbonyl)piperidine-1-carboxamide] |
| 7330 nM | O=C(NC[C@H](O)CN1CCc2ccccc2C1)N1CCCOCC1 [Example 1BP, (S)-N-(3-(3,4-dihydroisoquinolin-2(1H)-yl)-2-hydroxypropyl)-1,4-oxazepane-4-carboxamide] |
| 38900 nM | CC(=O)N1CCCN(C(=O)OCC(O)CN2CCc3ccccc3C2)CC1 (centres unmarked) [Example 4V, 3-(3,4-dihydroisoquinolin-2(1H)-yl)-2-hydroxypropyl 4-acetyl-1,4-diazepane-1-carboxylate] |

| Structure (SMILES) | IC50 |
| --- | --- |
| O=C(NC[C@H](O)CN1CCc2ccccc2C1)N1CCS[C@@H](c2ccccc2)C1 (single isomer, unassigned) [Example 5D, (S)-N-((S)-3-(3,4-dihydroisoquinolin-2(1H)-yl)-2-hydroxypropyl)-2-phenylthiomorpholine-4-carboxamide or (R)-N-((S)-3-(3,4-dihydroisoquinolin-2(1H)-yl)-2-hydroxypropyl)-2-phenylthiomorpholine-4-carboxamide] | 101 nM |
| O=C(OCC(O)CN1CCc2ccccc2C1)N1CC(C(=O)N2C3CCC2COC3)C1 (centres unmarked) [Example 4U, 3-(3,4-dihydroisoquinolin-2(1H)-yl)-2-hydroxypropyl 3-(3-oxa-8-azabicyclo[3.2.1]octane-8-carbonyl)azetidine-1-carboxylate] | 2980 nM |
| O=C(NC[C@H](O)CN1CCc2ccccc2C1)N1CCCC(N2CCCSCC2)C1 (stereo partly drawn) [Example 1CB, N-((S)-3-(3,4-dihydroisoquinolin-2(1H)-yl)-2-hydroxypropyl)-3-(1,4-thiazepan-4-yl)piperidine-1-carboxamide] | 337 nM |
| O=C(NC[C@H](O)CN1CCc2ccccc2C1)N1CCC[C@H](c2ccccn2)C1 (single isomer, unassigned) [Example 5E, (S)-N-((S)-3-(3,4-dihydroisoquinolin-2(1H)-yl)-2-hydroxypropyl)-3-(pyridin-2-yl)piperidine-1-carboxamide or (R)-N-((S)-3-(3,4-dihydroisoquinolin-2(1H)-yl)-2-hydroxypropyl)-3-(pyridin-2-yl)piperidine-1-carboxamide] | 81 nM |
| O=C(NC[C@H](O)CN1CCc2ccccc2C1)N1CCCC(C2CCOCC2)C1 (stereo partly drawn) [Example 1BZ, N-((S)-3-(3,4-dihydroisoquinolin-2(1H)-yl)-2-hydroxypropyl)-3-(tetrahydro-2H-pyran-4-yl)piperidine-1-carboxamide] | 270 nM |
| O=C(OC[C@@H](O)CN1CCc2ccccc2C1)N1CCC(C(=O)N2C3CCC2COC3)CC1 [Example 4X, (S)-3-(3,4-dihydroisoquinolin-2(1H)-yl)-2-hydroxypropyl 4-(3-oxa-8-azabicyclo[3.2.1]octane-8-carbonyl)piperidine-1-carboxylate] | 809 nM |
| O=C(NC[C@@H](O)CN1CCc2ccccc2C1)N1CCC(C(=O)N2C3CCC2COC3)CC1 [Example 1BE, 4-(3-oxa-8-azabicyclo[3.2.1]octane-8-carbonyl)-N-((R)-3-(3,4-dihydroisoquinolin-2(1H)-yl)-2-hydroxypropyl)piperidine-1-carboxamide] | 3080 nM |
| O=C(NC[C@H](O)CN1CCc2ccccc2C1)N1CCCC(c2ccccn2)C1 (stereo partly drawn) [Example 1BQ, N-((S)-3-(3,4-dihydroisoquinolin-2(1H)-yl)-2-hydroxypropyl)-3-(pyridin-2-yl)piperidine-1-carboxamide] | 48 nM |
